The values that follow come from PubChem BioAssay (NCI).

Test systems include 786-0 renal; A549 NSCLC; CCRF-CEM leukemia; HL-60(TB) leukemia; KM12 colon; MALME-3M melanoma; NCI-H226 lung; OVCAR-5 ovarian; OVCAR-8 ovarian; SF-539 CNS; SK-MEL-28 melanoma; SN12C renal; A498 renal; IGROV1 ovarian; NCI-H460 lung.
Assay in all cases: DTP human tumour cell line panel, 48 h

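Interpolation was linear, between the two tested concentrations surrounding the appropriate level; five concentrations were tested over 48 hours in 96-well plates. TGI marks complete inhibition of growth.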 Bounds are passed on as bounds.

Usually TGI stands for the concentration giving total growth inhibition. Lower therefore signals more potent growth arrest. For `COc1cccc(/C=C2\C(=O)N(C(=O)Cc3ccccc3)N=C2C)c1`, the total growth inhibition concentration (TGI) with 786-0 renal, in the test with A549 NSCLC, with CCRF-CEM leukemia, in the test with HL-60(TB) leukemia, with KM12 colon and with MALME-3M melanoma was above 100 µM each time. Also, the TGI in the test on NCI-H226 lung, with OVCAR-5 ovarian, in the test on OVCAR-8 ovarian, with SF-539 CNS, in the test with SK-MEL-28 melanoma and in the test on SN12C renal was above 100 µM throughout.
Consider `C/C(CN1C(=O)c2ccccc2C1=O)=N\NS(=O)(=O)c1ccc(F)cc1`, for which the TGI in the test on 786-0 renal, with A498 renal, with A549 NSCLC, in the test with CCRF-CEM leukemia, with HL-60(TB) leukemia and in the test on IGROV1 ovarian was above 100 µM throughout. The TGI in the test on KM12 colon, in the test on MALME-3M melanoma, in the test on NCI-H226 lung, in the test on NCI-H460 lung, in the test on OVCAR-5 ovarian and in the test with OVCAR-8 ovarian was above 100 µM each time. For the same compound, the TGI in the test on SF-539 CNS, in the test on SK-MEL-28 melanoma and in the test on SN12C renal was above 100 µM throughout.
On to `CCOC(=O)c1cn2c([nH]c3ccccc32)c(C#N)c1=O`, for which the TGI with 786-0 renal is above 100 µM; with A498 renal, above 100 µM; with A549 NSCLC, above 100 µM; in the test with CCRF-CEM leukemia, above 100 µM; in the test with HL-60(TB) leukemia it was 47.1 µM; in the test on IGROV1 ovarian it was above 100 µM. Also, the concentration for total growth inhibition (TGI) in the test with KM12 colon, in the test with MALME-3M melanoma, in the test on NCI-H226 lung, in the test with NCI-H460 lung, with OVCAR-5 ovarian and in the test with OVCAR-8 ovarian was above 100 µM in each case. Further, the TGI with SF-539 CNS, in the test with SK-MEL-28 melanoma and with SN12C renal was above 100 µM each time.
Take `COC1=CC(=O)c2ccccc2C1(C)C1=NC(C)(C)CO1` (stereo not given): the TGI in the test with 786-0 renal, in the test on A549 NSCLC, in the test with CCRF-CEM leukemia, with HL-60(TB) leukemia, with IGROV1 ovarian and with KM12 colon was above 100 µM each time. Besides, the TGI in the test on MALME-3M melanoma, in the test on NCI-H226 lung, in the test with NCI-H460 lung, with OVCAR-8 ovarian, in the test on SF-539 CNS and with SK-MEL-28 melanoma was above 100 µM each time. In addition, the TGI with SN12C renal is above 100 µM.
For `COC(=O)c1cc(C)n(NC(=O)OC(C)(C)C)c1C`, the TGI with 786-0 renal, with A498 renal, with A549 NSCLC, in the test on CCRF-CEM leukemia, with HL-60(TB) leukemia and in the test with IGROV1 ovarian was above 100 µM in each case. The TGI in the test on KM12 colon, with MALME-3M melanoma, with NCI-H226 lung, in the test on NCI-H460 lung, in the test with OVCAR-5 ovarian and in the test on OVCAR-8 ovarian was above 100 µM throughout. The total growth inhibition concentration (TGI) with SF-539 CNS, in the test with SK-MEL-28 melanoma and in the test with SN12C renal was above 100 µM throughout.
Regarding `COc1ccc(C2S/C(=C\c3cccc(O)c3)C(=O)N2NC(=O)Cc2ccccc2)cc1` (stereo not given), the TGI in the test with 786-0 renal, with A498 renal, with A549 NSCLC, in the test with CCRF-CEM leukemia, with HL-60(TB) leukemia and with IGROV1 ovarian was above 100 µM each time. Besides, the TGI in the test on KM12 colon, in the test on MALME-3M melanoma, in the test with NCI-H226 lung, in the test on NCI-H460 lung, with OVCAR-5 ovarian and in the test on OVCAR-8 ovarian was above 100 µM in each case. Further, the TGI in the test with SF-539 CNS and in the test on SN12C renal was above 100 µM in each case.
`COc1cc(C2C(Cl)C(=O)N2NC(=O)Cc2ccccc2)ccc1O` (stereo not given): the concentration for total growth inhibition (TGI) with 786-0 renal was above 100 µM; with A549 NSCLC, above 100 µM; with CCRF-CEM leukemia, above 100 µM; in the test on HL-60(TB) leukemia, 80.7 µM; in the test with IGROV1 ovarian, above 100 µM; in the test with KM12 colon it was above 100 µM. The TGI with MALME-3M melanoma, in the test on NCI-H226 lung, with NCI-H460 lung, in the test with OVCAR-5 ovarian, in the test with OVCAR-8 ovarian and in the test on SK-MEL-28 melanoma was above 100 µM throughout. The same compound returned a TGI in the test with SN12C renal above 100 µM.
With `O=S(Cc1cc2c(cc1Br)OCO2)c1ccccc1` (stereo not given), the concentration for total growth inhibition (TGI) in the test on 786-0 renal is above 100 µM; in the test on A498 renal, above 100 µM; in the test with A549 NSCLC it was above 100 µM; in the test with CCRF-CEM leukemia, 76.3 µM; in the test with HL-60(TB) leukemia, 57.4 µM; in the test on IGROV1 ovarian, above 100 µM. Further, the concentration for total growth inhibition (TGI) in the test with KM12 colon was 59.4 µM; in the test on MALME-3M melanoma, above 100 µM; with NCI-H226 lung it was above 100 µM; in the test on NCI-H460 lung, above 100 µM; in the test on OVCAR-5 ovarian, above 100 µM; in the test on OVCAR-8 ovarian, above 100 µM. Besides, the results for the concentration for total growth inhibition (TGI) in the test on SF-539 CNS, in the test with SK-MEL-28 melanoma and in the test on SN12C renal were 91.2 µM, above 100 µM and above 100 µM, respectively.
With `CC1=NN(c2ccccc2)C(=O)C1=C1SCCCS1`, the TGI in the test with 786-0 renal is above 100 µM; in the test with A498 renal, 90.7 µM; in the test on A549 NSCLC, above 100 µM; in the test on CCRF-CEM leukemia, 39 µM; in the test on HL-60(TB) leukemia, 41.9 µM; in the test with IGROV1 ovarian it was above 100 µM. The TGI in the test on KM12 colon was 66 µM; with MALME-3M melanoma, above 100 µM; in the test on NCI-H226 lung, above 100 µM; with NCI-H460 lung, above 100 µM; with OVCAR-5 ovarian, above 100 µM; with OVCAR-8 ovarian, above 100 µM. The values for the concentration for total growth inhibition (TGI) in the test with SK-MEL-28 melanoma and with SN12C renal were above 100 µM and 83.2 µM, respectively.
For the compound `NC1=NS(=O)(=O)Nc2nc(-c3cccs3)[nH]c21`, the TGI in the test on 786-0 renal, in the test with A498 renal, in the test with A549 NSCLC, in the test on CCRF-CEM leukemia, in the test on HL-60(TB) leukemia and in the test with IGROV1 ovarian was above 100 µM throughout. The total growth inhibition concentration (TGI) in the test on KM12 colon, in the test on MALME-3M melanoma, in the test with NCI-H460 lung, in the test on OVCAR-5 ovarian, with OVCAR-8 ovarian and in the test with SF-539 CNS was above 100 µM throughout. Also, the total growth inhibition concentration (TGI) with SK-MEL-28 melanoma and in the test on SN12C renal was above 100 µM each time.
